Literature values as cited in patent US8017153B2, “Dietary supplement composition for blood lipid health” (U.S. Nutraceuticals, LLC, priority 2006, dated 2011).

Conditions: Human studies

total radioactivity excreted in the feces: 81-91%
total radioactivity found in urine: 1.2%
Substance: [^3H]-octacosanol
